Columns and labels:
[1] = biological target: T1, rat 5-HT1A receptor (Rattus norvegicus, UniProt P19327); experiment: Binding assay in rat hippocampal membrane fraction ([3H]MPPF); settings: saturation binding, rat hippocampal membranes, Scatchard plot
T1 construct: from tissue; host or cells: rat hippocampus, membrane (microsomal) fraction
T1 sequence (P19327 1-422): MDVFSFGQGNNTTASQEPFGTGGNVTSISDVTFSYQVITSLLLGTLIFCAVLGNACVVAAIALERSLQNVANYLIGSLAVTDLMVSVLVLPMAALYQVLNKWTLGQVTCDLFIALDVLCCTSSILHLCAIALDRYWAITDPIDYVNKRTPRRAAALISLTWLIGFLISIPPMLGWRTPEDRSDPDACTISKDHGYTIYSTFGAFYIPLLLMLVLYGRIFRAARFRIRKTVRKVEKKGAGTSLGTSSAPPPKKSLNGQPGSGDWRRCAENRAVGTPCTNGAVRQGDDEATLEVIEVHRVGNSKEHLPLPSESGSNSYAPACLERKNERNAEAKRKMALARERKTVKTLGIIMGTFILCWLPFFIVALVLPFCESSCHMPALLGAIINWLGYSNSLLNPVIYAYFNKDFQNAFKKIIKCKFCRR
Method: Rat hippocampal samples were weighed, homogenized in 10-fold volume of 50 mM Tris-HCl (pH 7.4) on an ice bath, and centrifuged (50,000×g, 4°C, 20 min). The precipitate was further homogenized in a 10-fold volume of 50 mM Tris-HCl (pH 7.4) on an ice bath and centrifuged (50,000×g, 4°C, 20 min). The obtained precipitate was homogenized in 50 mM Tris-HCl (pH 7.4) to render a concentration of 100 mg tissue eq./mL. The obtained microsomal fraction was stored as a receptor stock solution at -80°C until use. […] MPPF in a total 1-ml reaction volume at 25°C for 60 min. The reaction was terminated, and bound radioactivity was separated from free radioligands by filtering and washing three times with 3 ml of 50 mM Tris-HCl (pH 7.4). The radioactivity content of the filters in 5 ml of liquid scintillator (Atomlight; PerkinElmer) was counted by TR2500 scintillation counter (PerkinElmer Life & Analytical Sciences). The specific binding was determined as the difference between total and nonspecific binding, measured in the absence and presence of 100 µM 5-HT. Data were analyzed by Scatchard plot to estimate equilibrium constant (Kd) values. For the competition experiments, binding assays were carried out using 0.3 nM [^3H] […] MPPF according to the following equation:
Ki=IC50/1+[radioligand]/Kd (1)
where [radioligand] means the concentration of the radioligand used.

[2] = test system: 5-HT1A; settings: hippocampal, unanesthetized rats; cited from earlier work
[3] = test system: 5-HT1A; settings: hippocampus, PET, isoflurane-anesthetized rats; cited from earlier work
[4] = test system: micturition interval; experiment: 5-HT1A receptor agonist (8-OH-DPAT)-induced model of OAB, cystometry; type: in vivo, female SD rats; settings: intravenous infusion 0.06 mg/kg/h, female SD rats
Method: Catheter implantations and cystometric investigations were performed based on the reported method [14]. Briefly, on the day before the cystometric experiment, female SD rats were initially anesthetized with pentobarbital (50 mg/kg ip). Catheters were inserted into the femoral vein, the dome of the stomach and the dome of the bladder. In the cystometric study, the bladder catheter was connected to an infusion pump and a pressure transducer (DX-312; Nihon Kohden Co., Tokyo, Japan) by three-way stopcock. Saline was infused into the bladder and femoral vein. After bladder pressure was stabilized, 8-OH-DPAT (0.06 mg/kg/h) was infused into the femoral vein instead of saline. Bladder pressure was monitored with a pressure transducer and a pressure amplifier (AP-601G; Nihon Kohden), and recorded on a pen recorder (WT-645G; Nihon Kohden). The following three micturition intervals (i.e., intervals between consecutive peaks of bladder pressure induced at the time of bladder content evacuation) were obtained: (1) basal micturition interval (intervals before 8-OH-DPAT administration), (2) pre-administration micturition interval, (intervals immediately before administration of E2110 or vehicle), and (3) post-administration micturition interval (intervals observed between 1 and 2 hr after administration of E2110 or vehicle). […] E2110 (0.03, 0.1 or 0.3 mg/kg) or vehicle was administered to four groups of eight conscious rats orally.
Data are expressed as mean ± standard error of mean (S.E.M). In the pharmacological study, the statistical significance of differences between the vehicle- and E2110-treated groups was tested using one-way analysis of variance (ANOVA) followed by Dunnett’s multiple comparison test. A probability (p) value of <0.05 (two-sided) was considered statistically significant. All statistical analyses were performed using the SAS software package version 8.1 or 8.2 (SAS Institute Japan Ltd., Tokyo, Japan).

Q: For `COc1ccccc1N1CCN(CCN(C(=O)c2ccc(F)cc2)c2ccccn2)CC1` [[^3H] MPPF, [^3H] 2'-methoxyphenyl-(N-2'-pyridinyl)-p-fluoro-benzamidoethyipiperazine, reference compound], which Kd [1] is on record?
A: The Kd was 0.92 nM.

Q: Which “ED50 for 5-HT1A RO, ex vivo autoradiography” value [2] does the source give for `CC(C)NCC(O)COc1cccc2[nH]ccc12` (stereo not shown) [pindolol] here?
A: The value was 8.5 mg/kg.

Q: And the “in vivo ED50 for 5-HT1A RO” value [3]?
A: Its value is 5.6 mg/kg.

Q: With `CCCN(CCC)C1CCc2cccc(O)c2C1` (stereo not shown) [8-OH-DPAT, 8-hydroxy-2-(di-n-propylamino)-tetralin, reference compound] as the molecule, how does the “micturition interval versus basal level” value [4] read?
A: The value was “markedly decreased”.
